Reference: patent publication US7135466B2 (Kirin Beer Kabushiki Kaisha, priority 1999, dated 2006)

Tests used:
[1] = molecular target: T1, PDGF-Ra (Homo sapiens, UniProt P16234); assay: Inhibitory activity against PDGF-Ra phosphorylation by PDGF-AA stimulation using G292; format: cell-based; settings: for IC50: > means inhibition at indicated concentration not more than 50%, < and << not less than 50%, read-out: PDGF (E) IC50; for inhibition at 0.1 µM: G292, figure within parentheses in >100( ), at 100 nM, read-out: PDGF (E) inhibition (%) at 100 nM
T1 construct: host or cells: G-292 human osteosarcoma cells
Outline: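 Human osteosarcoma G-292, 0.1% FBS o/n; cpd (DMSO) 1 h 37 °C; PDGF-AA 50 ng/ml 5 min; lyse 20 min RT; PY-20 capture 4 °C o/n; anti-PDGF-Ra + HRP-GAR; OD450.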

[2] = molecular target: T2, c-kit (Homo sapiens, UniProt P10721); assay: Inhibitory activity against c-kit autophosphorylation (MO7e cells, h-SCF); format: cell-based; settings: for IC50: MO7e cells, 50 ng/ml h-SCF, read-out: c-kit IC50; for inhibition at 1 µM: Mo7e, figure within parentheses in −( ) or >1000( ), at 1000 nM
T2 construct: MO7e (human megakaryocytic leukemia cell line) which had been arrested for 20 hr; endogenous in cells; host or cells: MO7e human megakaryocytic leukemia cell line
Outline: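 MO7e human megakaryocytic leukemia cells, arrested 20 hr, treated with compound 1 hr, then stimulated with 50 ng/ml h-SCF for 5 min and lysed. Lysates captured on immobilized anti-phosphotyrosine antibody, detected with anti-c-kit primary and HRP secondary antibody; absorbance at 450 nm.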

T2 sequence (P10721 26-976): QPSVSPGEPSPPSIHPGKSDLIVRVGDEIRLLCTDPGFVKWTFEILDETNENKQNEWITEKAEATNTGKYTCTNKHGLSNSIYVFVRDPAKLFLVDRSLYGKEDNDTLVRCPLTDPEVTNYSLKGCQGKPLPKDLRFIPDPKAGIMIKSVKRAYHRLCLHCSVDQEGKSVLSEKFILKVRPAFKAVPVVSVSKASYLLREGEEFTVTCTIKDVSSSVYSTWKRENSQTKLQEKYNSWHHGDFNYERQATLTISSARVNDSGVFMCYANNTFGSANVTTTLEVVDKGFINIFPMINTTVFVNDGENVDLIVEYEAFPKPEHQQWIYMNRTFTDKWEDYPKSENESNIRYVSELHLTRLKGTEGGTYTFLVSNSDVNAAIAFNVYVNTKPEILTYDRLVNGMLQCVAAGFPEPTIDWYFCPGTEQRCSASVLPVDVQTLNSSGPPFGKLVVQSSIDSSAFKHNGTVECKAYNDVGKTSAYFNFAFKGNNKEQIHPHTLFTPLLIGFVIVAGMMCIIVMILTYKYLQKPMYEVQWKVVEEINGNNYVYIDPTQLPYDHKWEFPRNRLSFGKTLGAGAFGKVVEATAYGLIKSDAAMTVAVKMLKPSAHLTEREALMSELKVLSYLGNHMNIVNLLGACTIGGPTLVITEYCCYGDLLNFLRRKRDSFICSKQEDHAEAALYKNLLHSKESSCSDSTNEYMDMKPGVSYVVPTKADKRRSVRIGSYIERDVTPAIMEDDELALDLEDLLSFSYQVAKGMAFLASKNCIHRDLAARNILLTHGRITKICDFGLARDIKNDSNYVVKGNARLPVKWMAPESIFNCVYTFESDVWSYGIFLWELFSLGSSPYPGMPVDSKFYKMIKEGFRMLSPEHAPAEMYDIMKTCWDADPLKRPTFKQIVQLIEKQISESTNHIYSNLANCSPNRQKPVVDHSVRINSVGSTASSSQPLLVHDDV
T1 sequence (P16234 24-1089): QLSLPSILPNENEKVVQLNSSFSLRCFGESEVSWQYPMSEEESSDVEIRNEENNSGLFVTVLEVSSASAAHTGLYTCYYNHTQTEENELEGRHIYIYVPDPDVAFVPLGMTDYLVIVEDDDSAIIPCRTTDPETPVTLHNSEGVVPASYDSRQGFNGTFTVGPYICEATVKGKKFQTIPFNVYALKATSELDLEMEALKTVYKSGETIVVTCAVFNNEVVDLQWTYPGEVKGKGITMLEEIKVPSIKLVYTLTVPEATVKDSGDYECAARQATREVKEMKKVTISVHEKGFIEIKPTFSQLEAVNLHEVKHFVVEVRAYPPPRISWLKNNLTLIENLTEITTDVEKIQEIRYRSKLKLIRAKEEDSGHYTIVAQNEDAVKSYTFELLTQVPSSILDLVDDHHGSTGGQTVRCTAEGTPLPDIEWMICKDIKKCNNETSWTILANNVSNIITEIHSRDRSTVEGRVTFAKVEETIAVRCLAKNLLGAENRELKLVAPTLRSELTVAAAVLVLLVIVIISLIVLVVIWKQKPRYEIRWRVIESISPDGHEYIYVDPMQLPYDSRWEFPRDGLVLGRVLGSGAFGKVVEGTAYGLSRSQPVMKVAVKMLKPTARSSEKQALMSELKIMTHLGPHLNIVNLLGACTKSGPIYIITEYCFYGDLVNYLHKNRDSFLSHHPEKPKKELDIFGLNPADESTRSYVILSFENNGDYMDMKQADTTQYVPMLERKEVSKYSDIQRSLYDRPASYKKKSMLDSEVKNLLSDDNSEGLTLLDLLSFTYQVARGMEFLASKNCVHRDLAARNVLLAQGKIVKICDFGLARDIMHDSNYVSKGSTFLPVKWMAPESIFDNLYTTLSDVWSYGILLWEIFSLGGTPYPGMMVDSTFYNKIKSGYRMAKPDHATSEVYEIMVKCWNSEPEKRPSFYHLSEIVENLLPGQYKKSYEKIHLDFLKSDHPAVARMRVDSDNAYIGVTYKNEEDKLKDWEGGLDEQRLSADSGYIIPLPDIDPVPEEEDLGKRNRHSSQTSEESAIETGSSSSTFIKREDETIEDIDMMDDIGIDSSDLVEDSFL

Row | SMILES | IC50 [1] | IC50 [2] | inhibition at 0.1 µM [1] | inhibition at 1 µM [2]
1 | COc1cc2nccc(Oc3ccc(NC(=O)NC4CCN(Cc5ccccc5C)C4)c(C)c3C)c2cc1OC (stereo not drawn) [Example 572, N-{4-[(6,7-Dimethoxy-4-quinolyl)oxy]-2,3-dimethylphenyl}-N′-[1-(2-methylbenzyl)tetrahydro-1H-3-pyrrolyl]urea] | 64 nM | 262 nM |  | 
2 | COc1cc2ncnc(Oc3ccc(NC(=O)NC4CCN(Cc5ccccc5C)C4)c(Cl)c3)c2cc1OC (stereo not drawn) [Example 573, N-{2-Chloro-4-[(6,7-dimethoxy-4-quinazolinyl)oxy]phenyl}-N′-[1-(2-methylbenzyl)tetrahydro-1H-3-pyrrolyl]urea] | 39 nM | 348 nM |  | 
3 | COc1cc2nccc(Oc3ccc(NC(=O)NC4CCN(Cc5ccccc5C)C4)cc3)c2cc1OC (stereo not drawn) [Example 574, N-{4-[(6,7-Dimethoxy-4-quinolyl)oxy]phenyl}-N′-[1-(2-methylbenzyl)tetrahydro-1H-3-pyrrolyl]urea] | 45 nM | 147 nM |  | 
4 | COc1cc2ncnc(Oc3ccc(NC(=O)N[C@H]4CCN(Cc5ccccc5)C4)c(Cl)c3)c2cc1OC [Example 576, N-[(3S)-1-Benzyltetrahydro-1H-3-pyrrolyl]-N′-{2-chloro-4-[(6,7-dimethoxy-4-quinazolinyl)oxy]phenyl}urea] | 36 nM | 151 nM |  | 
5 | COc1cc2nccc(Oc3ccc(NC(=O)NC4CCN(Cc5ccc(C(C)(C)C)cc5)C4)cc3)c2cc1OC (stereo not drawn) [Example 582, N-{1-[4-(Tert-butyl)benzyl]tetrahydro-1H-3-pyrrolyl}-N′-{4-[(6,7-dimethoxy-4-quinolyl)oxy]phenyl}urea] | > 100 nM |  | 20% | 29%
6 | COc1cc2ncnc(Oc3ccc(NC(=O)NC4CCN(Cc5ccc(C(C)(C)C)cc5)C4)cc3)c2cc1OC (stereo not drawn) [Example 583, N-{1-[4-(Tert-butyl)benzyl]tetrahydro-1H-3-pyrrolyl}-N′-{4-[(6,7-dimethoxy-4-quinazolinyl)oxy]phenyl}urea] | > 100 nM |  | 17% | 18%
7 | COc1cc2ncnc(Oc3ccc(NC(=O)NC4CCN(Cc5ccc(C(C)(C)C)cc5)C4)c([N+](=O)[O-])c3)c2cc1OC (stereo not drawn) [Example 584, N-{1-[4-(Tert-butyl)benzyl]tetrahydro-1H-3-pyrrolyl}-N′-{4-[(6,7-dimethoxy-4-quinazolinyl)oxy]-2-nitrophenyl}urea] | > 100 nM |  | 13% | 13%
8 | COc1cc2ncnc(Oc3ccc(NC(=O)NC4CCN(CC5CCCCC5)C4)cc3)c2cc1OC (stereo not drawn) [Example 586, N-[1-(Cyclohexylmethyl)tetrahydro-1H-3-pyrrolyl]-N′-{4-[(6,7-dimethoxy-4-quinazolinyl)oxy]phenyl}urea] | 63 nM | 734 nM |  | 
9 | COc1cc2ncnc(Oc3ccc(NC(=O)NC4CCN(CC5CCCCC5)C4)c([N+](=O)[O-])c3)c2cc1OC (stereo not drawn) [Example 587, N-[1-(Cyclohexylmethyl)tetrahydro-1H-3-pyrrolyl]-N′-{4-[(6,7-dimethoxy-4-quinazolinyl)oxy]-2-nitrophenyl}urea] | 67 nM |  |  | 16%
10 | COc1cc2nccc(Oc3ccc(NC(=O)NN4CCCCC4)c([N+](=O)[O-])c3)c2cc1OC [Example 594, N-{4-[(6,7-Dimethoxy-4-quinolyl)oxy]-2-nitrophenyl}-N′-(1-piperidinyl)urea] | > 100 nM |  | 39% | 10%
11 | COc1cc(Oc2ncnc3cc(OC)c(OC)cc23)ccc1NC(=O)NN1CCCCC1 [Example 596, N-{4-[(6,7-Dimethoxy-4-quinazolinyl)oxy]-2-methoxyphenyl}-N′-(1-piperidinyl)urea] | 63 nM | 719 nM |  | 
12 | COc1cc2ncnc(Oc3ccc(NC(=O)NN4CCCCC4)c([N+](=O)[O-])c3)c2cc1OC [Example 597, N-{4-[(6,7-Dimethoxy-4-quinazolinyl)oxy]-2-nitrophenyl}-N′-(1-piperidinyl)urea] | > 100 nM |  | 27% | 8%
13 | COc1cc2ncnc(Oc3ccc(NC(=O)NN4CCCCC4)cc3)c2cc1OC [Example 603, N-{4-[(6,7-Dimethoxy-4-quinazolinyl)oxy]phenyl}-N′-(1-piperidinyl)urea] | > 100 nM | 864 nM | 42% | 
14 | COc1cc2nccc(Oc3ccc(NC(=O)NC4CCN(Cc5ccccc5)C4)c(C)c3C)c2cc1OC (stereo not drawn) [Example 604, N-{4-[(6,7-Dimethoxy-4-quinolyl)oxy]-2,3-dimethylphenyl}-N′-[4-(N-benzyl)piperidinyl]urea] | 73 nM | 322 nM |  | 
15 | COc1cc2nccc(Oc3cc(C)c(NC(=O)NCCN4CCOCC4)cc3C)c2cc1OC [Example 616, N-{4-[(6,7-Dimethoxy-4-quinolyl)oxy]-2,5-dimethylphenyl}-N′-(2-morpholinoethyl)urea] | 36 nM | 224 nM |  | 

The next compounds have a lower IC50 [1] than those just listed; values first:

Row | IC50 [1] | IC50 [2] | inhibition at 0.1 µM [1] | inhibition at 1 µM [2] | SMILES
16 | 32 nM | 556 nM |  |  | COc1cc(Oc2ncnc3cc(OC)c(OC)cc23)ccc1NC(=O)NC1CCN(Cc2ccccc2C)C1 (stereo not drawn) [Example 571, N-{4-[(6,7-Dimethoxy-4-quinazolinyl)oxy]-2-methoxyphenyl}-N′-[1-(2-methylbenzyl)tetrahydro-1H-3-pyrrolyl]urea]
17 | 27 nM | 664 nM |  |  | COc1cc2ncnc(Oc3ccc(NC(=O)N[C@@H]4CCN(Cc5ccccc5)C4)c(Cl)c3)c2cc1OC [Example 575, N-[(3R)-1-Benzyltetrahydro-1H-3-pyrrolyl]-N′-{2-chloro-4-[(6,7-dimethoxy-4-quinazolinyl)oxy]phenyl}urea]
18 | 14 nM | 328 nM |  |  | COc1cc2ncnc(Oc3ccc(NC(=O)N[C@@H]4CCN(Cc5ccccc5)C4)c([N+](=O)[O-])c3)c2cc1OC [Example 577, N-[(3R)-1-Benzyltetrahydro-1H-3-pyrrolyl]-N′-{4-[(6,7-dimethoxy-4-quinazolinyl)oxy]-2-nitrophenyl}urea]
19 | 18 nM | 104 nM |  |  | COc1cc2ncnc(Oc3ccc(NC(=O)N[C@H]4CCN(Cc5ccccc5)C4)c([N+](=O)[O-])c3)c2cc1OC [Example 578, N-[(3S)-1-Benzyltetrahydro-1H-3-pyrrolyl]-N′-{4-[(6,7-dimethoxy-4-quinazolinyl)oxy]-2-nitrophenyl}urea]
20 | 22 nM | 145 nM |  |  | COc1cc2nccc(Oc3ccc(NC(=O)NC4CCN(Cc5ccccc5Cl)C4)cc3)c2cc1OC (stereo not drawn) [Example 579, N-[1-(2-Chlorobenzyl)tetrahydro-1H-3-pyrrolyl]-N′-{4-[(6,7-dimethoxy-4-quinolyl)oxy]phenyl}urea]
21 | 14 nM | 84 nM |  |  | COc1cc2ncnc(Oc3ccc(NC(=O)NC4CCN(Cc5ccccc5Cl)C4)cc3)c2cc1OC (stereo not drawn) [Example 580, N-[1-(2-Chlorobenzyl)tetrahydro-1H-3-pyrrolyl]-N′-{4-[(6,7-dimethoxy-4-quinazolinyl)oxy]phenyl}urea]
22 | 14 nM | 180 nM |  |  | COc1cc2ncnc(Oc3ccc(NC(=O)NC4CCN(Cc5ccccc5Cl)C4)c([N+](=O)[O-])c3)c2cc1OC (stereo not drawn) [Example 581, N-[1-(2-Chlorobenzyl)tetrahydro-1H-3-pyrrolyl]-N′-{4-[(6,7-dimethoxy-4-quinazolinyl)oxy]-2-nitrophenyl}urea]
23 | 28 nM | 487 nM |  |  | CCN(CC)CCNC(=S)Nc1ccc(Oc2ccnc3cc(OC)c(OC)cc23)cc1 [Example 589, N-{4-[(6,7-Dimethoxy-4-quinolyl)oxy]phenyl}-N′-(2-diethylaminoethyl)thiourea]
24 | 33 nM | 117 nM |  |  | COc1cc2ncnc(Oc3ccc(NC(=O)NC4CCN(Cc5ccccc5)CC4)cc3)c2cc1OC [Example 591, N-{4-[(6,7-Dimethoxy-4-quinazolinyl)oxy]phenyl}-N′-[4-(N-benzyl)piperidinyl]urea]
25 | 23 nM | 472 nM |  |  | COc1cc2nccc(Oc3ccc(NC(=O)NN4CCCCC4)cc3)c2cc1OC [Example 592, N-{4-[(6,7-Dimethoxy-4-quinolyl)oxy]phenyl}-N′-(1-piperidinyl)urea]
26 | 19 nM | 423 nM |  |  | COc1cc(Oc2ccnc3cc(OC)c(OC)cc23)ccc1NC(=O)NN1CCCCC1 [Example 598, N-{4-[(6,7-Dimethoxy-4-quinolyl)oxy]-2-methoxyphenyl}-N′-(1-piperidinyl)urea]
27 | 11 nM | 180 nM |  |  | COc1cc2ncnc(Oc3ccc(NC(=O)NN4CCCCCC4)cc3)c2cc1OC [Example 602, N-{4-[(6,7-Dimethoxy-4-quinazolinyl)oxy]phenyl}-N′-(1-homopiperidinyl)urea]
28 | 18 nM | 263 nM |  |  | COc1cc2ncnc(Oc3ccc(NC(=O)NC4CCN(Cc5ccccc5)CC4)c([N+](=O)[O-])c3)c2cc1OC [Example 606, N-{4-[(6,7-Dimethoxy-4-quinazolinyl)oxy]-2-nitrophenyl}-N′-[4-(N-benzyl)piperidinyl]urea]
29 | 29 nM | 554 nM |  |  | COc1cc(Oc2ccnc3cc(OC)c(OC)cc23)ccc1NC(=O)NC1CCN(Cc2ccccc2)CC1 [Example 607, N-{4-[(6,7-Dimethoxy-4-quinolyl)oxy]-2-methoxyphenyl}-N′-[4-(N-benzyl)piperidinyl]urea]
30 | < 10 nM | 201 nM |  |  | COc1cc2nccc(Oc3ccc(NC(=O)NN4CCCCCC4)cc3)c2cc1OC [Example 608, N-{4-[(6,7-Dimethoxy-4-quinolyl)oxy]phenyl}-N′-(1-homopiperidinyl)urea]
